From patent US9708336B2, “Metallo-beta-lactamase inhibitors” (priority 2014, dated 2017) come the findings set out here.

For one experiment, the target named is VIM-1 (Pseudomonas aeruginosa (strain ATCC 15692 / DSM 22644 / CIP 104116 / JCM 14847 / LMG 12228 / 1C / PRS 101 / PAO1), UniProt A0A0F7KYQ8). Briefly: Enzyme activity: determination of IC50, fluorescence assay with CCF2-FA substrate (VIM-1). Type of experiment: biochemical.
The subject of experiment [1] is Escherichia coli expressing NDM-1 (CLB30016). Briefly: Antibiotic potentiation activity: synergistic concentration (MITC95) with imipenem, OD600 growth. Type of experiment: cell-based. In a few lines: (§1)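 CLB30005 was precultured on Mueller Hinton agar with 8 ug/ml imipenem, the other strains on trypticase soy agar with 5% sheep blood, overnight at 35 °C. Saline suspensions diluted 1:100 in 1.1× CAMHB received compound and 4 μg/ml imipenem, then 22–24 h at 35 °C before absorbance reading.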

The subject of experiment [2] is Serratia marcescens expressing IMP-1 (CL5741). The description is as above. Type of experiment: cell-based. The gist of the method:
as §1

The test system of experiment [3] is Klebsiella pneumoniae expressing VIM-1 (IHMA599644). The experiment is described as above. The format is cell-based. The gist of the method: as §1
The next experiment deals with NDM-1 (Klebsiella pneumoniae, UniProt C7C422). Briefly: biochemical. The format is biochemical. Conditions: read-out: NDM-1 IC50.
Sequence of NDM-1 (C7C422 whole entry, looked up, species assumed): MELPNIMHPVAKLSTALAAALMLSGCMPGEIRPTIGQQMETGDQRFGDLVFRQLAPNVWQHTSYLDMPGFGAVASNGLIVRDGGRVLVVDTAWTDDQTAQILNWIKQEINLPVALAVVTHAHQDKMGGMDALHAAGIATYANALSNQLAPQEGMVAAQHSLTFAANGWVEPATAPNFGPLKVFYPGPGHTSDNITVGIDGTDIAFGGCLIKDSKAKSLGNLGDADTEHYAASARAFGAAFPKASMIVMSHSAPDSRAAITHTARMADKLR
A further experiment deals with IMP-1 (Serratia marcescens, UniProt P52699). In words: biochemical. Type of experiment: biochemical. Conditions: read-out: IMP-1 IC50.
Sequence of IMP-1 (P52699 whole entry, looked up): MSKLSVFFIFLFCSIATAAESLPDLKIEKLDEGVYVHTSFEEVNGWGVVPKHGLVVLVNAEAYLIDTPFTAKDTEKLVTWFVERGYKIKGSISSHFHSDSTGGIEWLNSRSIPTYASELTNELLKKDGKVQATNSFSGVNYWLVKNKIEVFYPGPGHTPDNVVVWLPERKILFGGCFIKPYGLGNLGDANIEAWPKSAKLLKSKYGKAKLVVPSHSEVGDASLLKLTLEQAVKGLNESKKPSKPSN
[4] abbreviates: fluorescence assay with CCF2-FA substrate, read-out: VIM-1 IC50.
[5] abbreviates: concentration giving 95% inhibition of bacterial growth.
Setting [6] is: fluorescence assay with CCF2-FA substrate.
[7] abbreviates: VIM-1 enzyme, CCF2-FA fluorescence assay, read-out: VIM-1 IC50.
Where [8] appears, read: Escherichia coli expressing NDM-1 (CLB30016), 95% growth inhibition.
[9] abbreviates: Serratia marcescens expressing IMP-1 (CL5741), 95% growth inhibition.
Setting [10] is: Klebsiella pneumoniae expressing VIM-1 (IHMA599644), 95% growth inhibition.
The mark [11] stands for this setting: NDM-1 enzyme, CCF2-FA fluorescence assay.
[12] abbreviates: IMP-1 enzyme, CCF2-FA fluorescence assay.
[13] abbreviates: VIM-1 enzyme, CCF2-FA substrate, read-out: VIM-1 IC50.
[14] abbreviates: (CLB30016, NDM-1), 95% growth inhibition.
Setting [15] is: Serratia marcescens CL5741 (IMP-1), 95% growth inhibition.
The mark [16] stands for this setting: Klebsiella pneumoniae IHMA599644 (VIM-1), 95% growth inhibition.
[17] abbreviates: NDM-1 enzyme, CCF2-FA substrate.
The mark [18] stands for this setting: IMP-1 enzyme, CCF2-FA substrate.

pIC50: −log10 of the molar value. Read-outs that look alike come from different tables or passages of the source.

In the case of `Cc1ccccc1Cc1cccc(S(N)(=O)=O)c1-c1nnn[nH]1` [Example 155, 3-(2-methylbenzyl)-2-(1H-tetrazol-5-yl)benzenesulfonamide], the pIC50 on VIM-1 (setting [4]) was 7.79; at NDM-1 (setting [6]) it was 8.52; at IMP-1 (setting [6]), 7.03. In addition, the “Escherichia coli expressing NDM-1 (CLB 30016) MITC95” value in experiment [1] (setting [5]) came to 3.125 µM. Moreover, in experiment [2] (setting [5]), the “Serratia marcescens expressing IMP-1 (CL5741) MITC95” value turned out to be 2.344 µM. Further, in experiment [3] (setting [5]), the “Klebsiella pneumoniae expressing VIM-1 (IHMA 599644) MITC95” value is 75 µM.

Consider `NS(=O)(=O)c1c(C(F)(F)F)ccc(N2CCC(c3ccc(CO)cc3)CC2)c1-c1nn[nH]n1` [Example 450, 3-(4-(4-(hydroxymethyl)phenyl)piperidin-1-yl)-2-(2H-tetrazol-5-yl)-6-(trifluoromethyl)benzenesulfonamide], for which the pIC50 was 8.74 on VIM-1 (setting [7]), 8.79 at NDM-1 (setting [11]) and 8.89 on IMP-1 (setting [12]). The “Escherichia coli MITC95” value in experiment [1] (setting [8]) is 18.75 µM. Moreover, the “Serratia marcescens MITC95” value in experiment [2] (setting [9]) was 0.03125 µM. Also, the “Klebsiella pneumoniae MITC95” value in experiment [3] (setting [10]) worked out at 75 µM.

As to `N=C(N)NCc1ccc(-c2ccc(CC3CCNCC3)c(S(N)(=O)=O)c2-c2nn[nH]n2)cc1` [Example 594, 4′-(guanidinomethyl)-4-(piperidin-4-ylmethyl)-2-(2H-tetrazol-5-yl)biphenyl-3-sulfonamide], the results for the pIC50 on VIM-1 (setting [13]), on NDM-1 (setting [17]) and at IMP-1 (setting [18]) were 8.27, 7.87 and 7.29, respectively. For the same molecule, the “Escherichia coli MITC95” value in experiment [1] (setting [14]) came out at 0.7813 µM. Also, in experiment [2] (setting [15]), the “Serratia marcescens MITC95” value is 1.563 µM. In addition, the “Klebsiella pneumoniae MITC95” value in experiment [3] (setting [16]) came to 1.563 µM.

Take `Nc1ccc(-c2ccc(C[C@H]3CC[C@@H](N)CC3)c(S(N)(=O)=O)c2-c2nnn[nH]2)cn1` [Example 574, 6-(((1s,4s)-4-aminocyclohexyl)methyl)-3-(6-aminopyridin-3-yl)-2-(2H-tetrazol-5-yl)benzenesulfonamide]: the pIC50 on VIM-1 (setting [13]) was 8.10; at NDM-1 (setting [17]), 8.83; at IMP-1 (setting [18]), 7.45. Also, the “Escherichia coli MITC95” value in experiment [1] (setting [14]) was 0.3906 µM. The “Serratia marcescens MITC95” value in experiment [2] (setting [15]) was found to be 3.125 µM. In experiment [3] (setting [16]), the “Klebsiella pneumoniae MITC95” value is 3.125 µM.

As to `NS(=O)(=O)c1nccc(N2CCCC(Cc3cccnc3)C2)c1-c1nnn[nH]1` (stereo not drawn) [Example 243, 4-[3-(pyridin-3-ylmethyl)piperidin-1-yl]-3-(1H-tetrazol-5-yl)pyridine-2-sulfonamide], the pIC50 at VIM-1 (setting [7]) was 6.69; on NDM-1 (setting [11]), 7.17; on IMP-1 (setting [12]) it was 5.82. Further, in experiment [1] (setting [8]), the “Escherichia coli MITC95” value is 18.75 µM. Also, the “Serratia marcescens MITC95” value in experiment [2] (setting [9]) was 100 µM. Besides, the “Klebsiella pneumoniae MITC95” value in experiment [3] (setting [10]) was more than 200 µM.

As to `NS(=O)(=O)c1cccc(-c2ccc(CNCCc3c[nH]cn3)cc2)c1-c1nnn[nH]1` [Example 384, 4′-({[2-(1H-imidazol-4-yl)ethyl]amino}methyl)-2-(1H-tetrazol-5-yl)biphenyl-3-sulfonamide], the pIC50 on VIM-1 (setting [7]) is 6.65; at NDM-1 (setting [11]), 7.87; on IMP-1 (setting [12]), 6.53. Also, the “Escherichia coli MITC95” value in experiment [1] (setting [8]) was 1.953 µM. Moreover, the “Serratia marcescens MITC95” value in experiment [2] (setting [9]) came out at 4.688 µM. Further, the “Klebsiella pneumoniae MITC95” value in experiment [3] (setting [10]) is 50 µM.

For `NS(=O)(=O)c1cccc(-c2cnc3cnccn23)c1-c1nnn[nH]1` [Example 651, 3-imidazo[1,2-a]pyrazin-3-yl-2-(1H-tetrazol-5-yl)benzenesulfonamide], the pIC50 is 7.39 at VIM-1 (VIM-1 IC50, VIM-1 enzyme, CCF2-FA substrate); 8.01 on NDM-1 (setting [17]); 6.05 at IMP-1 (setting [18]). Besides, in experiment [1] (setting [14]), the “Escherichia coli MITC95” value is 1.172 µM. The “Serratia marcescens MITC95” value in experiment [2] (setting [15]) was 37.5 µM. Moreover, the “Klebsiella pneumoniae MITC95” value in experiment [3] (setting [16]) was determined as 6.25 µM.

As to `NS(=O)(=O)c1cccc(-c2ccnc3ncccc23)c1-c1nnn[nH]1` [Example 406, 3-(1,8-naphthyridin-4-yl)-2-(1H-tetrazol-5-yl)benzenesulfonamide], the pIC50 at VIM-1 (setting [7]) is 8.76; at NDM-1 (setting [11]), 8.78; at IMP-1 (setting [12]) it was 6.60. Also, the “Escherichia coli MITC95” value in experiment [1] (setting [8]) is 1.172 µM. The “Serratia marcescens MITC95” value in experiment [2] (setting [9]) came to 6.25 µM. Besides, the “Klebsiella pneumoniae MITC95” value in experiment [3] (setting [10]) came to 3.125 µM.

Take `Nc1cnc2cc(-c3cccc(S(N)(=O)=O)c3-c3nnn[nH]3)ccc2c1` [Example 416, 3-(3-amino-7-quinolyl)-2-(1H-tetrazol-5-yl)benzenesulfonamide]: the values for the pIC50 on VIM-1 (setting [7]), on NDM-1 (setting [11]) and on IMP-1 (setting [12]) were 7.86, 8.62 and 7.25, respectively. Moreover, the “Escherichia coli MITC95” value in experiment [1] (setting [8]) is 2.344 µM. Besides, the “Serratia marcescens MITC95” value in experiment [2] (setting [9]) was 6.25 µM. In experiment [3] (setting [10]), the “Klebsiella pneumoniae MITC95” value came out at 25 µM.

On to `NS(=O)(=O)c1c(C(F)(F)F)ccc(-c2ccc(C3CCN(C4CCNCC4)CC3)cc2)c1-c1nnn[nH]1` [Example 785, 4′-(1,4′-bipiperidin-4-yl)-2-(1H-tetrazol-5-yl)-4-(trifluoromethyl)biphenyl-3-sulfonamide], for which the figures for the pIC50 on VIM-1 (setting [4]), on NDM-1 (setting [6]) and on IMP-1 (setting [6]) were 7.91, 8.38 and 8.96, respectively. In addition, the “Escherichia coli MITC95” value in experiment [1] (CLB30016 (NDM-1), 95% inhibition of bacterial growth) was 1.563 µM. Besides, the “Serratia marcescens MITC95” value in experiment [2] (CL5741 (IMP-1), 95% inhibition of bacterial growth) is 3.125 µM. In addition, the “Klebsiella pneumoniae MITC95” value in experiment [3] (IHMA599644 (VIM-1), 95% inhibition of bacterial growth) was determined as 25 µM.

On to `NS(=O)(=O)c1c(CCCCCO)ccc(CCCCCO)c1-c1nn[nH]n1` [Example 542, 3,6-Bis(5-hydroxypentyl)-2-(2H-tetrazol-5-yl)benzenesulfonamide], for which the pIC50 on VIM-1 (setting [13]) was 8.19; on NDM-1 (setting [17]) it was 7.94; at IMP-1 (setting [18]), 8.10. For the same molecule, the “Escherichia coli MITC95” value in experiment [1] (setting [14]) is 25 µM. The “Serratia marcescens MITC95” value in experiment [2] (setting [15]) came to 6.25 µM. Moreover, the “Klebsiella pneumoniae MITC95” value in experiment [3] (setting [16]) was found to be 100 µM.

On to `NS(=O)(=O)c1cccc(-c2ccc(N3CCC(O)C3)nc2)c1-c1nnn[nH]1` (stereo not drawn) [Example 633, 3-[6-(3-hydroxypyrrolidin-1-yl)-3-pyridyl]-2-(1H-tetrazol-5-yl)benzenesulfonamide], for which the pIC50 on VIM-1 (setting [13]) was 6.92; at NDM-1 (setting [17]), 8.31; on IMP-1 (setting [18]), 7.18. Besides, the “Escherichia coli MITC95” value in experiment [1] (setting [14]) was determined as 0.125 µM. In addition, the “Serratia marcescens MITC95” value in experiment [2] (setting [15]) was 4.833 µM. The “Klebsiella pneumoniae MITC95” value in experiment [3] (setting [16]) amounted to 37.5 µM.

`NC1(c2ccc(-c3ccc(C(F)(F)F)c(S(N)(=O)=O)c3-c3nn[nH]n3)cc2)CCNCC1` [Example 436, 4′-(4-aminopiperidin-4-yl)-2-(2H-tetrazol-5-yl)-4-(trifluoromethyl)-[1,1′-biphenyl]-3-sulfonamide]: the figures for the pIC50 on VIM-1 (setting [7]), on NDM-1 (setting [11]) and at IMP-1 (setting [12]) were 8.52, 8.03 and 7.89, respectively. Moreover, in experiment [1] (setting [8]), the “Escherichia coli MITC95” value amounted to 0.375 µM. In experiment [2] (setting [9]), the “Serratia marcescens MITC95” value amounted to 0.2552 µM. Moreover, in experiment [3] (setting [10]), the “Klebsiella pneumoniae MITC95” value is 0.8542 µM.

Turning to `Cc1nc(CNCc2ccc(-c3cccc(S(N)(=O)=O)c3-c3nnn[nH]3)cc2)no1` [Example 360, 4′-({[(5-methyl-1,2,4-oxadiazol-3-yl)methyl]amino}methyl)-2-(1H-tetrazol-5-yl)biphenyl-3-sulfonamide], the pIC50 was 6.64 at VIM-1 (setting [7]), 8.82 on NDM-1 (setting [11]) and 7.42 at IMP-1 (setting [12]). In experiment [1] (setting [8]), the “Escherichia coli MITC95” value is 2.344 µM. Moreover, the “Serratia marcescens MITC95” value in experiment [2] (setting [9]) was 2.344 µM. For the same molecule, the “Klebsiella pneumoniae MITC95” value in experiment [3] (setting [10]) was more than 200 µM.

Turning to `CNCCN1CCC(c2ccc(-c3ccc(C(F)(F)F)c(S(N)(=O)=O)c3-c3nnn[nH]3)cc2)CC1` [Example 674, 4′-{1-[2-(methylamino)ethyl]piperi-din-4-yl}-2-(1H-tetrazol-5-yl)-4-(trifluoromethyl)biphenyl-3-sulfonamide], the pIC50 is 7.76 on VIM-1 (setting [13]), 8.18 on NDM-1 (setting [17]) and 8.61 on IMP-1 (setting [18]). In addition, the “Escherichia coli MITC95” value in experiment [1] (setting [14]) is 3.125 µM. Moreover, the “Serratia marcescens MITC95” value in experiment [2] (setting [15]) was determined as 6.25 µM. The “Klebsiella pneumoniae MITC95” value in experiment [3] (setting [16]) is 75 µM.

`CN(CCN1CCCC1)c1ccc(-c2cccc(S(N)(=O)=O)c2-c2nnn[nH]2)cn1` [Example 629, 3-[6-[methyl(2-pyrrolidin-1-ylethyl)amino]-3-pyridyl]-2-(1H-tetrazol-5-yl)benzenesulfonamide]: the figures for the negative logarithm of the IC50 (pIC50) on VIM-1 (setting [13]), at NDM-1 (setting [17]) and at IMP-1 (setting [18]) were 6.17, 7.36 and 6.10, respectively. Moreover, in experiment [1] (setting [14]), the “Escherichia coli MITC95” value was 4.688 µM. The “Serratia marcescens MITC95” value in experiment [2] (setting [15]) came out at 25 µM. In addition, the “Klebsiella pneumoniae MITC95” value in experiment [3] (setting [16]) was found to be 100 µM.
